Data taken from US20210393645A1, “TREATMENT FOR PROGRESSIVE MULTIPLE SCLEROSIS” (UTI LIMITED PARTNERSHIP, priority 2016, published 2021).
Structures can show the parent of a compound that is named as a salt.

Columns and labels:
C57BL/6 mice [1] = test: MOG-EAE in C57BL/6 mice, clinical score; type: in vivo, mouse
human neurons = test: Live cell imaging of propidium iodide positive neurons challenged with FeSO4; type: cell-based; conditions: FeSO4 50 μM, pre-treatment 1 h
Method: Neurons were prepared as described above. Directly after the addition of FeSO4 to healthy neurons, the live cell-permeant Hoechst 33342 (1:2 diluted in AIM-V medium, nuclear blue; ThermoFisher Scientific, Grand Island, NY, USA) and the live cell-impermeable propinium iodide (PI, 1:20 diluted in AIM-V medium) were added in a volume of 20 μI (Sigma-Aldrich). In compromised cells, PI could now diffuse across the plasma membrane. Live cell imaging was performed using the automated ImageXpress® imaging system under controlled environmental conditions (37° C. and 5% CO2). Images were taken from 9 sites per well at baseline and then every 30 min for 12h. After export with MetaXpress®, videos were edited with ImageJ (NIH) in a uniform manner. Nuclei were pseudo colored in cyan, PI-positive cells in red.
Live cell imaging over 12 h supported the neuroprotective effects of drugs. We selected indapamide and desipramine for live imaging studies.

T-cells [2] = test: Proliferation of T-lymphocytes (3H-thymidine) in anti-CD3/anti-CD28 activated splenocytes; type: cell-based, mouse; conditions: Mus musculus, T-cell, 72 h; drug 10 μM, vs activated splenocytes; read-out: mean reduction of 3H-thymidine incorporation (T-cell proliferation)
Method: A previously published protocol was used for isolating and activating T-cells (Keough et al., Nature Comm 7:11312, 2016). Spleens from female C57B16 mice were harvested and after mechanical dissociation the cell suspension was passed through a 70 μm cell strainer and separated by Ficoll gradient (1800 RPM, 30 min). Splenocytes were plated (2.5×10^5 cells in 100 μl/well) in anti-CD3 antibody coated 96-well plates (1,000 ng m1^−1 plate-bound anti-CD3 and 1,000 ng m1^−1 anti-CD28 suspended in media) to activate T-cells. Directly before plating, wells were treated with respective drugs in a final concentration of 10 μM. Cells were cultured in RPMI 1640 medium, supplemented with 10% FBS, 1 μM sodium pyruvate, 2 mM L-alanyl-L-glutamine, 1% penicillin/streptomycin, 1% HEPES and 0.05 mM 2-mercaptoethanol (all supplements were from Invitrogen). After 48 h, ^3H-thymidine was added in a concentration of 1 μCi per well, and cells were harvested after 24 h on filter mats. Mats were then evaluated for radioactivity (counts per minute) using a liquid scintillation counter.

T-cells [3] = test: as above; type: cell-based, mouse; conditions: concentration response
microglia = conditions: shown previously; cited from earlier work
B-cells = test: Proliferation of activated B-cells (3H-thymidine); type: cell-based, human; conditions: BCR/anti-CD40L/IL-4 activation
Method: Venous blood from healthy volunteers was obtained and peripheral blood mononuclear cells (PBMCs) were isolated by Ficoll gradient centrifugation (1800 RPM, 30 min). From PBMCs, B-cells were isolated by positive selection with CD19 directed microbeads (Stemcell Technologies). Purity was assessed by FACS after staining for CD19 (Stemcell Technologies). Cells were plated in a concentration of 2.5×10^5 cells/well in X-VIVO™ medium (Lonza) supplemented with 1% penicillin/streptomycin and 1% Glutamax and treated with drugs for 1 h. […] Medium as well as respective drugs were re-added followed by application of ^3H-thymidine in a concentration of 1 μCi per well to investigate proliferation.

[4] = test system: Ifng, Tnfa, Il-17 and Ccl2 transcripts; test: RT-PCR of inflammatory transcripts in lumbar spinal cord of EAE mice; type: in vivo, mouse; conditions: 25 mg/kg IP from day 0, sacrifice day 15
Method: Lumbar spinal cords were harvested, snap frozen in liquid nitrogen and stored in -80° C. Samples were homogenized in 1 ml Trizol followed by the addition of 200 μI chloroform. […] RNA was extracted using the RNeasy Mini Kit according to the manufacturer's instruction (Qiagen). RNA concentrations were measured using a Nanodrop (Thermo Fisher Scientific). cDNA preparation was performed using the RT2 First Strand kit (Qiagen) with 1μg of RNA according to the manufacturer's instructions. Real time PCR was performed using the QuantStudio 6 Flex (Applied Biosystems by Life Technologies) with FAST SYBR Green and primers for Gapdh (Qiagen) as housekeeping gene, lfn-γ (Qiagen, QT01038821), Tnfa (Qiagen, QT00104006), II-17 (SABiosciences, PPM03023A-200) and CcI2 (Qiagen, QT00167832). Relative expression was calculated using the ΔΔCT method with Gapdh as housekeeping gene. Data were normalized to gene expression in naïve mice.

C57BL/6 mice [5] = test: Histological analyses of the spinal cord of EAE mice (HE/LFB, Iba1, Bielschowsky); type: in vivo, mouse; conditions: 25 mg/kg IP from day 0
From the text: Spinal cords and cerebella were removed. […] Cervical and lumbar cords were snap frozen.

T-lymphocytes = test: Cell cycle analysis of activated splenocytes by flow cytometry (propidium iodide); type: cell-based, mouse
Method: Two days after activation and drug treatment splenocytes were harvested, washed with PBS followed by resuspension in PBS with 2% FBS. Cell cycle analysis was performed taking advantage of propidium iodide staining (50 μg/ml) using an established protocol (Besson and Yong, 2000). Cells were washed in cold PBS and resuspended in PI/Triton X-100 staining solution (10 ml 0.1% (v/v) Triton X-100 in PBS with 2 mg DNAse-free RNAse A and 0.4 ml of 500 μg/ml PI), followed by incubation at 4° C. for 30 min. Stained cells were analyzed on a FACSCalibur™ with the software CellQuest™ (BD Biosciences). Cell cycle analysis was conducted using the software ModFit LT, version 3.3 (Verity Software House Inc.).
Cells were identified by gating into the lymphocyte population, followed by single cell gating to exclude doublets and aggregates. This was followed by identification of the G0/G1 population and processing with the software ModFit LT, version 3.3 (Verity Software House Inc.) to calculate the percentage of cells in different cell cycles.

[6] = 25 mg/kg IP from onset of clinical signs (day 13)

CN(C)CCCN1c2ccccc2CCc2ccc(Cl)cc21 [CLOMIPRAMINE HYDROCHLORIDE]
manifestations of clinical signs (C57BL/6 mice [1]; 25 mg/kg IP from day 0 (day of MOG induction)): completely suppressed | delay of onset of clinical signs (C57BL/6 mice [1]; 25 mg/kg IP from day 5 after induction): 2 days | clinical disability of first relapse, days 14-20 (C57BL/6 mice [1]; [6]): attenuated the marked rise in clinical disability | second increase in clinical scores, days 42-50 (C57BL/6 mice [1]; [6]): prevented | severity of the second relapse (C57BL/6 mice [1]; 25 mg/kg IP from remission after first relapse (day 31)): did not affect the severity of the second relapse | number of PI-positive neurons in response to FeSO4 over 12 h (human neurons): attenuated | inhibition at 10 µM (T-cells [2]): 68.2% | concentration from which T-lymphocyte proliferation is significantly reduced (T-cells [3]): 5 µM | microglia inhibitory activity (microglia): did not have microglia inhibitory activity | concentration from which proliferation of activated B-cells is reduced (B-cells): 2 µM | elevation of transcripts encoding Ifng, Tnfa, Il-17 and Ccl2 in spinal cord [4]: abrogated | axonal damage (Bielschowsky stain) (C57BL/6 mice [5]): significantly less axonal damage | histological score of the spinal cord (inflammation) (C57BL/6 mice [5]): 1.7 | microglial activation (Iba1 staining) (C57BL/6 mice [5]): prevented microglial activation | concentration from which cell cycle arrest is seen (more cells in G1, less in S-phase) (T-lymphocytes): 2 µM
